Seven molecules from US11634378B2, “Compounds and methods targeting GPER in calcium disorders” (Saint Louis University, priority 2017, dated 2023) can be followed below.

Test [1] addresses T1, GPER (Homo sapiens, UniProt Q99527).
T1 construct: HL-60 cells (a human promyelocytic leukemia cell line) which endogenously expresses GPER; host or cells: HL-60
In words: Calcium mobilization antagonism assay in indo1-AM-loaded HL-60 cells (against EC80 of G-1). Format: cell-based. To be noted: Table 3; HL-60 cells endogenously expressing GPER; mean ± SD of three IC50 values from triplicates; read-out: IC50 (nM) of the inhibition of calcium mobilization. The procedure: Human Myelocytic Leukemia (HL-60) cells were grown in phenol red free media containing 10% […] fetal bovine serum (FBS), 1% Pen-Strep, and 1% Glutamax. Cells were grown to no more than 1×10^6 cells/mL to prevent differentiation before being split. Prior to assay cells were transferred to phenol red free media containing charcoal-stripped FBS. On the day of the assay cells were centrifuged down at 16.4 G for 5 minutes and washed with 50:1 HBSS/HEPES. Cells were resuspended at 1×10^7 cells/mL in 50:1 HBSS/HEPES. To the resuspended cells, 0.05% pluronic acid and 5 uM of fluorescent calcium indicator, Indo-1AM, were added. The dye solution was incubated for 0.5 hrs at room temperature with rocking. After 30 minutes cells were spun down, and resuspended in 50:1 HBSS/HEPES. Cells were placed on ice for at least 5 minutes and then resuspended in 8.5 mL of 50:1 HBSS/HEPES (containing probenacid) for agonism assays or 6.5 mL of 50:1 HBSS/HEPES (containing probenacid) for antagonism assays. For agonism assays 160 μL of cell suspension were added to a 96-well plate and were incubated at 37° for 10 minutes in a FlexStation® 3 plate reader (Molecular Devices). Inside the plate reader, 40 μL of agonist were added to each well and excited with 350 nm and read at emissions of 405 nm and 490 nm. For antagonist assays, 120 μL of cell suspension were added to a 96-well plate. In addition to the cell suspension 40 μL of antagonist were added to the wells. Cells with antagonists were incubated at 37° for 15 minutes in FlexStation® 3 plate reader (Molecular Devices). Inside the plate reader, 40 μL of agonist at the EC80 were added to each well and excited with 350 nm and read at emissions of 405 nm and 490 nm.
In vitro biological evaluation using calcium mobilization. HL-60 cells were grown in 10% charcoal-stripped RPMI 72 hours before assays were performed. Cells were centrifuged and counted with a hemocytometer from Hausser Scientific (Bedford, Mass.). The assay required 100,000 cells per well, for a total number of cells on a 96-well plate assay of about 1×10 (Matthews and Gustafsson, 2003). HL-60 cells (1×10 (Matthews and Gustafsson, 2003)) were incubated in 50:1 Hanks balanced salt solution (Millipore Sigma, Saint Louis, Mo. and HEPES (Gibco by Life Technologies, Gaithersburg, Md.) containing 5 μM indo1-AM (Thermo Fischer Scientific, Waltham, Mass.) and 0.05% pluronic acid (AAT Bioquest Inc., Sunnyvale, Calif.) for 0.5 h at RT. Cells were spun down and washed with 50:1 HBSS/HEPES, and resuspended in media. Resuspension was placed on ice for no longer than 5 mins. Cells were loaded into plate at 100,000 cells/well. For agonist cells were immediately incubated for 15 mins at 37° C. Following the 15 mins incubation FlexStation 3 Multimode Plate Reader (Molecular Devices, Sunnyvale, Calif.) added the appropriate amount of agonist and was read for 150 seconds at 37° C. For antagonists once the cells were seeded, antagonist was added and incubated for 15 mins at 37° C. After 15 mins of equilibration, the EC80 of G-1 was added by the FlexStation and read for 150 secs at 37° C. Calcium mobilization was determined ratiometrically using λex 350 nm and λem 405/490 nm.
Background: A change in cytosolic calcium serves as a functional read-out for many receptors and channels.

Another test has as its target T2, ERα (Homo sapiens, UniProt P03372).
T2 construct: purchased Invitrogen (Carlsbad, Calif.)
T2 sequence (P03372 1-595): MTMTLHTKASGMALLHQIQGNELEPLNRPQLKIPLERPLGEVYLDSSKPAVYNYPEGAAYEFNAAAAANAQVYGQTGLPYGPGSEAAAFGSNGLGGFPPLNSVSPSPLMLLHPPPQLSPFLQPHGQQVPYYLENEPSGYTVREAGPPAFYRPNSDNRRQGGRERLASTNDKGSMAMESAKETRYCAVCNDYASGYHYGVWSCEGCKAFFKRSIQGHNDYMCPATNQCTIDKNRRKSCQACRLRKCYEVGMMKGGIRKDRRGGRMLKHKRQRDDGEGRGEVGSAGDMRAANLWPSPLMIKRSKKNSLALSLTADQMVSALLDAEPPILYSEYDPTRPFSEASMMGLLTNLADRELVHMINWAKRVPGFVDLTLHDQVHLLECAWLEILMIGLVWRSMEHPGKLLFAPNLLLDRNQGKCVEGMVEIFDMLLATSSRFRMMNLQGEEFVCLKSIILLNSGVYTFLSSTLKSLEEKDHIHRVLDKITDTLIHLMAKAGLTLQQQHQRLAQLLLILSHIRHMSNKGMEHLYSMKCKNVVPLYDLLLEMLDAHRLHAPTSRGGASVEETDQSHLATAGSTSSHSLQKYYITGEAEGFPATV
Nature of the test: ERα PolarScreen fluorescence polarization competitor assay. Format: binding. The procedure:
(§1) ERα and ERβ Fluorescence Polarization Assay. The ERα and ERβ PolarScreen™ Competitor Assays by Invitrogen (Carlsbad, Calif.) were purchased. The concentrations of the ERα and ERβ enzyme varied between the two assays. A 4× sample of ERα was prepared for a final concentration of 75 nM. Conversely, a 4× sample of ERβ was prepared for a final concentration of 23 nM within the assay. For both ERα and ERβ a 4× aliquot of Fluoromone was prepared for a final assay concentration of 4.5 nM. Despite the differences in concentration of ERα and ERβ, the binding assay protocol for the two different enzymes remained the same. Drug dilutions were prepared for a 2× dilution in the ER specific buffer that was provided within the assay kit. In addition to the drug dilutions a 2× aliquot of Fluoromone was prepared by adding 10 μL of 4× with 10 μL of ER specific buffer. A 2× dilution of enzyme and fluorophore was achieved by adding equal portions of each to each other. To a black 384-plate well plate, 10 μL of compound were added to the wells followed by 10 μL of the 2× mixture of enzyme and fluoromone. Two controls were included in the plate design. In one control, enzyme and compound were omitted so that only ER specific buffer and fluoromone remained. A separate control contained the enzyme and fluoromone control. […] The plate was incubated at RT for 2 hours before being read with λex 485 nm and λem 535 nm.
In general terms: Fluorescence polarisation rises when a labelled molecule tumbles more slowly, as on binding a larger partner.

For another test, the target named is T3, ERβ (Homo sapiens, UniProt Q92731).
T3 construct: purchased Invitrogen (Carlsbad, Calif.)
Nature of the test: ERβ PolarScreen fluorescence polarization competitor assay. To be noted: below 10 μM. Format: binding. On the procedure:
as §1

The target of test [2] is T1, GPER. Nature of the test: cAMP HTRF antagonism assay (G-1 induced inhibition of adenylate cyclase) in HL-60 cells. Format: cell-based. The procedure: In vitro cAMP biological evaluation. A homogeneous time resolved fluorescence (HTRF®) components for cAMP was purchased by CisBio (Bedford, Mass.). HL-60 cells were grown in 10% charcoal-stripped RPMI media for 72 hours prior to assays. Cells were centrifuged and counted with a hemocytometer from Hausser Scientific (Horsham, Pa.). The total number of cells needed to complete the assay was determined based upon 8,000 cells/well. The determined number of cells was diluted in 5:1 (5×) stimulation buffer contain 500 μM of 3-isobutyl-1-methylxanthine (IBMX) (Sigma Aldrich, Saint Louis, Mo.). To an HTRF 96-well low volume white plate from CisBio, 5 μL of cold cell suspension was added to each plate, followed by 4 μL of (2.5×) of agonist or stimulation buffer (negative control and non-stimulated cells). Cells were covered with a clear plastic film and incubated at 37° C. for 15 mins in an incubator. After 15 mins cell 1 μL of 10 μM (10×) forskolin was added to each well. The plate was once again sealed and incubated at 37° C. for 15 mins. After 15 mins 5 μL of cAMP-d2 (acceptor) was added to all wells, including controls. Conversely, 5 μL of monoclonal anti-cAMP Eu3^+ cryptate (donor) was added to only the wells with test compound and non-stimulated cells. Following addition, the plate was sealed, covered with aluminum foil, and incubated at room temperature for 30 mins. After the allotted time cells were read using Flexstation3 and with λex 314 nm and λem 665 nm. For an antagonism platform the procedure was slightly altered. The EC80 of G-1 was recalculated based upon cAMP agonism results. To the plate, 2 μL of (5×) antagonist were added dose wise followed by the addition of 5 μL of cold cell suspension to all wells (top and bottom well were designated as G-1 control and forskolin control, respectively). Cells and antagonists were incubated for 15 mins at 37° C. After 15 mins, 2 μL of the (5×) EC80 of G-1 was added to wells with antagonist. […] Cells were allowed to equilibrate at room temperature for 30 minutes before being read at λex 314 nm and λem 665 nm.
Background: Time-resolved FRET reads energy transfer from a long-lived donor to a nearby acceptor.

T1 sequence (Q99527 whole entry): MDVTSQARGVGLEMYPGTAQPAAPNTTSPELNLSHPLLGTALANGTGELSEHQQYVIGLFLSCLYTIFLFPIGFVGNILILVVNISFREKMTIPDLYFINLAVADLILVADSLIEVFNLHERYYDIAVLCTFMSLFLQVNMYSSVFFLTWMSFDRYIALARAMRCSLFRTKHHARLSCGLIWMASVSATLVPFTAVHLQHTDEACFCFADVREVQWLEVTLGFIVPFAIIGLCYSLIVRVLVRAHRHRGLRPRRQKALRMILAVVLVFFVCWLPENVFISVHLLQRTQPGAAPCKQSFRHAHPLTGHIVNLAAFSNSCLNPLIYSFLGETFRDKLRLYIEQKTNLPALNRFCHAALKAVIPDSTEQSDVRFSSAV
T3 sequence (Q92731 whole entry): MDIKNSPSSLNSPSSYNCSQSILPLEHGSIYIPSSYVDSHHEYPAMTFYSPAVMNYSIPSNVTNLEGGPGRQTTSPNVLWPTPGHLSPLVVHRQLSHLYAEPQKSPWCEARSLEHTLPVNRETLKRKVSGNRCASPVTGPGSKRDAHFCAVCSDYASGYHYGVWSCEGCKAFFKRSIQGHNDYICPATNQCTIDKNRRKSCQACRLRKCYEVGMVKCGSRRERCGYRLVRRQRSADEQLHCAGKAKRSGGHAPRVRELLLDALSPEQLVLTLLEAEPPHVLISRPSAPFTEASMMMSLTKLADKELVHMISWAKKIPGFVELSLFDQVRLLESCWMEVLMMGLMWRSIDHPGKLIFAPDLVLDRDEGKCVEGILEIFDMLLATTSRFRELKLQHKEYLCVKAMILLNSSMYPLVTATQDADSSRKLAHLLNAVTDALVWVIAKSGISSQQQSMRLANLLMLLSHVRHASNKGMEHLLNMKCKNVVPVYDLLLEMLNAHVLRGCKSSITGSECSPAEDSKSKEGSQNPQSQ

Regarding `CC(C)(C)c1ccc(NCc2ccc(Cl)c(Cl)c2)c(C2CCCCC2)c1` [Compound 25], the IC50 (in general, the concentration at which inhibition is half-maximal) on GPER [1] turned out to be 657 ± 94 nM.
On the same count and under the same terms, as for `CC(C)(C)c1ccc(NCc2ccccc2)c(C2CCCCC2)c1` [Compound 23], the figure is 331 ± 160 nM; as for `CC(C)(C)c1ccc(NCc2ccc(-c3ccccc3)cc2)c(C2CCCCC2)c1` [Compound 20], 132 ± 145 nM.
`CC(C)(C)c1ccc(NCc2ccc(Cl)cc2)c(C2CCCCC2)c1` [Compound 24]: the IC50 at GPER [1] was 141 ± 14 nM.
For `Cc1ccc(CNc2ccc(C(C)(C)C)cc2C2CCCCC2)cc1` [Compound 21], the ERα binding entry at ERα (10 μM (highest concentration)) was “a low level of binding”; on ERα (below 10 μM) it was “do not exhibit binding”. At ERβ, the ERβ binding result is “do not exhibit binding”. The “Antagonism of G-1 induced inhibition of adenylate cyclase” value at GPER [2] (100 nM) is “also observed, less so”; on GPER [2] (1 μM exposure), “caused a decrease in adenylate cyclase inhibition”. In addition, the “Reduction of G-1 induced inhibition of cAMP formation / adenylate cyclase” value at GPER [2] (EC80 of G-1, 1 μM forskolin, concentration not given) is given as “able to decrease inhibition of adenylate cyclase”. Moreover, the IC50 at GPER [1] was 60.8 ± 18 nM.
On to `COc1ccc(CNc2ccc(C(C)(C)C)cc2C2CCCCC2)cc1` [Compound 22], for which the half-inhibitory concentration (IC50) at GPER [1] worked out at 874 ± 49 nM.
On the same count and under the same terms, with `CC(C)c1ccc(NCc2ccc3ccccc3c2)c(C2CCCCC2)c1` [Compound 5] the figure was 260 ± 110 nM.
